Laboratory results published in BindingDB's records for doi:10.1021/jm960728j (Uppsala University, 1997).

Biological target: T1, Dimer of Gag-Pol polyprotein [489-587] (Human immunodeficiency virus 1, UniProt P12497)
T1 construct: 489-587
Assay: Protease Inhibition Assay
Conditions: pH 5.5; 37 °C
Description: The IC50 value is the inhibitor concentration that results in 50% of HIV-1 protease activity measured by a spectrophotometric assay using a chromophoric peptide.

## O=C1N(Cc2ccc(CO)cc2)[C@H](COc2ccccc2)[C@H](O)[C@@H](O)[C@@H](COc2ccccc2)N1Cc1ccc(CO)cc1 [(4R,5S,6S,7R)-5,6-dihydroxy-1,3-bis({[4-(hydroxymethyl)phenyl]methyl})-4,7-bis(phenoxymethyl)-1,3-diazepan-2-one]
  Ki: < 1 nM

## O=C1N(Cc2ccc(CO)cc2)[C@H](Cc2ccccc2)[C@H](O)[C@@H](O)[C@@H](Cc2ccccc2)N1Cc1ccc(CO)cc1 [(4R,5S,6S,7R)-4,7-dibenzyl-5,6-dihydroxy-1,3-bis({[4-(hydroxymethyl)phenyl]methyl})-1,3-diazepan-2-one]
  Ki: < 1 nM
